Laboratory results published in US6831080B2, “Cinnamide derivatives as KCNQ potassium channel modulators” (Bristol-Myers Squibb Company, priority 2001, dated 2004).

Legend:
mKCNQ2 channels = target: T1, mKCNQ2 channels (Mus musculus, UniProt Q9Z351); test: Whole-cell patch-clamp, HEK 293 stable cell line expressing mKCNQ2 channels; format: cell-based; settings: HEK 293 mKCNQ2, Hill fit; for EC50: @ −40 mV; for Emax: HEK293, read-out: Imax (%)
T1 construct: expressed in transfected cells
Protocol: Whole-cell patch-clamp recordings were made from an HEK 293 stable cell line expressing mKCNQ2 channels, maintained in culture for 1-2 days. Patch pipettes had initial resistances of 2.5-4 MΩ. Currents were recorded with an EPC-9 amplifier (HEKA, Lambrecht, Germany) controlled with software (Pulse, HEKA) run on a standard lab PC. Series resistance compensation was used during current recording, and set at 80%. The series resistance (R) and cell capacitance (C) were determined electronically by subtracting the capacitive currents at the onset and offset of a 5 mV voltage step. The cancellation of whole-cell capacitance transients was virtually complete in all cells. Analog current signals were low-pass filtered at 2.9 kHz using a four-pole Bessel filter −3 dB) and stored on a local network server computer at a sampling rate of […]. All recordings were performed at room temperature (20-22° C.). The pipette solution contained (mM): KCl, 150; CaCl2, 2.5; EGTA, 5; MgCl2, 1; HEPES, 10; pH to 7.3 with KOH, and Osmolality of 290-300 mOsm. The extracellular solution contained (mM): NaCl, 140; KCl, 2.5; CaCl2, 2.5; MgCl2, 1; glucose, 10; HEPES, 10; pH to 7.3 with NaOH, and Osmolality of 305-310 mOsm
Concentration response data were generated by measuring the difference in the steady-state amplitude of current in the presence of compound at the end of a 600 ms voltage-clamp step from a holding potential of −80 mV. The concentration-response data were fitted with Hill-type equations: […]
where I is the steady-state current at a given concentration of agonist [A]; and Imax, EC50 and nH are parameters estimated from the curve fit. In some cases the concentration-response data were fitted with equations consisting of the sum of two Hill-type components. Current-voltage (I/V) relationships for agonist-evoked currents were obtained by performing 600 ms voltage steps (−110 mV to +40 mV) in the absence and presence of agonist.

T1 sequence (Q9Z351 whole entry): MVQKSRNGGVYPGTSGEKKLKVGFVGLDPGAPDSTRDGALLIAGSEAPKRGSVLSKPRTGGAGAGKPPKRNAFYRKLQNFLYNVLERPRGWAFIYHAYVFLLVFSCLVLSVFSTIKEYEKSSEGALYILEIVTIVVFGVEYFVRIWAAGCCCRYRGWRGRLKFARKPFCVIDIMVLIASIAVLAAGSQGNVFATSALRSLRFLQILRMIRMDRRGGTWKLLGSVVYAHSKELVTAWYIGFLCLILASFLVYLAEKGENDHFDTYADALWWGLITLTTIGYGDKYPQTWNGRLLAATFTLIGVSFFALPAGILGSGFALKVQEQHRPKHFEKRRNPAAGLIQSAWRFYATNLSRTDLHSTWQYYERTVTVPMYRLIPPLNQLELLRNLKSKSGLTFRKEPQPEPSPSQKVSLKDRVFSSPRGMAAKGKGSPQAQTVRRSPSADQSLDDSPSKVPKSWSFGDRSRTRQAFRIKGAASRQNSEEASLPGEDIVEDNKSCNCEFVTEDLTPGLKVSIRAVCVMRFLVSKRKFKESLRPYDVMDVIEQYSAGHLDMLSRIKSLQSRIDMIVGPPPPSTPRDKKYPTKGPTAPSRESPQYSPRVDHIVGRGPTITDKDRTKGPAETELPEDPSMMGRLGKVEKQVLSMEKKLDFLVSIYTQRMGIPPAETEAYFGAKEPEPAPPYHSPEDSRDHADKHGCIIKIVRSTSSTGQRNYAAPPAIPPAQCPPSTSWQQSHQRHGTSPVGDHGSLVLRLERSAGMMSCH

CC(NC(=O)/C=C/c1c(F)cccc1F)c1ccc2c(c1)CCCN2 (stereo not shown) [Example 253, 3-(2,6-difluoro-phenyl)-N-[1-(1,2,3,4-tetrahydro-quinolin-6-yl)ethyl]acrylamide] gave a melting point of 77 to 80 °C.

Compound CC(NC(=O)/C=C/c1cccc(F)c1)c1ccc2c(c1)CCCN2 (stereo not shown) [Example 254, 3-(3-fluoro-phenyl)-N-[1-(1,2,3,4-tetrahydro-quinolin-6-yl)ethyl]acrylamide] has a melting point of 172 to 174 °C.

For CC(NC(=O)/C=C/c1cc(F)ccc1F)c1ccc2c(c1)CCCN2C (stereo not shown) [Example 257, 3-(2,5-difluoro-phenyl)-N-[1-(1-methyl-1,2,3,4-tetrahydro-quinolin-6-yl)ethyl]acrylamide], the melting point was 51 to 55 °C.

CC(NC(=O)/C=C/c1cccc(F)c1)c1ccc2c(c1)N(C)CCC2 (racemic) [Example 239, (±)-3-(3-fluoro-phenyl)-N-[1-(1-methyl-1,2,3,4-tetrahydro-quinolin-7-yl)ethyl]acrylamide] showed a melting point of 60 to 63 °C.

With CC(NC(=O)/C=C/c1cccc(F)c1)c1ccc2c(c1)NCCC2 (racemic) [Example 232, (±)-3-(3-Fluoro-phenyl)-N-[1-(1,2,3,4-tetrahydro-quinolin-7-yl)ethyl]-acrylamide] the melting point was 130 to 132 °C (dec.).

Compound CC(NC(=O)/C=C/c1ccccc1F)c1ccc2c(c1)N(CC1CC1)CCO2 (single isomer, unassigned) [Example 215, 3-(2-fluoro-phenyl)-N-[1-(4-cyclopropylmethyl-3,4-dihydro-2H-benzo[1,4]oxazin-6-yl)ethyl]-acrylamide] has an EC50 (mKCNQ2 channels) of 5.4 µM.

Compound CC(NC(=O)/C=C/c1ccccc1)c1ccc2c(c1)CCCN2C (stereo not shown) [Example 256, N-[1-(1-methyl-1,2,3,4-tetrahydro-quinolin-6-yl)-ethyl]-3-phenyl-acrylamide] has a melting point of 65 to 68 °C.

CC(NC(=O)/C=C/c1cc(F)ccc1F)c1ccc2c(c1)CCCN2 (stereo not shown) [Example 252, 3-(2,5-difluoro-phenyl)-N-[1-(1,2,3,4-tetrahydro-quinolin-6-yl)-ethyl]acrylamide] gave a melting point of 55 to 58 °C.

Work on CC(NC(=O)/C=C/c1cc(F)ccc1F)c1ccc2c(c1)OCO2 (racemic) [Example 38, (±)-N-(1-Benzo[1,3]-diox-ol-5-yl-ethyl)-3-(2,5-di-fluoro-phenyl)-acrylamide] yielded an EC50 (mKCNQ2 channels) of 4.2 µM and an Emax (mKCNQ2 channels) of 550%.

Work on CC(=O)N1CCCc2ccc(C(C)NC(=O)/C=C/c3ccccc3)cc21 (racemic) [Example 243, (±)-N-[1-(1-acetyl-1,2,3,4-tetrahydro-quinolin-7-yl)-ethyl]-3-phenyl-acrylamide] yielded a melting point of 65 to 68 °C.

With CC(NC(=O)/C=C/c1ccccc1F)c1ccc2c(c1)CCCN2 (stereo not shown) [Example 251, 3-(2-fluoro-phenyl)-N-[1-(1,2,3,4-tetrahydro-quinolin-6-yl)ethyl]acrylamide] the melting point was 149 to 151 °C (dec.).

For CCN1CCCc2ccc(C(C)NC(=O)/C=C/c3ccccc3)cc21 (racemic) [Example 241, (±)-N-[1-(1-ethyl-1,2,3,4-tetrahydro-quinolin-7-yl)-ethyl]-3-phenyl-acrylamide], the melting point was 50 to 52 °C.

With CC(NC(=O)/C=C/c1cc(F)ccc1F)c1ccc2c(c1)N(C)CCC2 (racemic) [Example 237, (±)-3-(2,5-difluoro-phenyl)-N-[1-(1-methyl-1,2,3,4-tetrahydro-quinolin-7-yl)ethyl]acrylamide] the melting point was 52 to 55 °C.

Compound CC(NC(=O)/C=C/c1ccccc1)c1ccc2c(c1)CCCN2 (stereo not shown) [Example 249, 3-phenyl-N-[1-(1,2,3,4-tetrahydro-quinolin-6-yl)ethyl]acrylamide] has a melting point of 64 to 67 °C.

With CC(NC(=O)/C=C/c1ccc(F)cc1)c1ccc2c(c1)CCCN2 (stereo not shown) [Example 255, 3-(4-fluoro-phenyl)-N-[1-(1,2,3,4-tetrahydro-quinolin-6-yl)ethyl]acrylamide] the melting point was 140 to 143 °C.

Compound CC(NC(=O)/C=C/c1ccccc1F)c1ccc2c(c1)NCCC2 (racemic) has a melting point of 171 to 173 °C.

CCN1CCCc2ccc(C(C)NC(=O)/C=C/c3cc(F)ccc3F)cc21 (racemic) [Example 242, (±)-3-(2,5-difluoro-phenyl)-N-[1-(1-ethyl-1,2,3,4-tetrahydro-quinolin-7-yl)ethyl]acrylamide] gave a melting point of 50 to 53 °C and an EC50 (mKCNQ2 channels) of 1.4 µM.

Work on CC(NC(=O)/C=C/c1cc(F)ccc1F)c1ccc2c(c1)NCCC2 (racemic) [Example 234, (±)-3-(2,5-difluoro-phenyl)-N-[1-(1,2,3,4-tetrahydro-quinolin-7-yl)ethyl]-acrylamide] yielded a melting point of 139 to 141 °C.

CC(NC(=O)/C=C/c1ccccc1F)c1ccc2c(c1)N(C)CCC2 (racemic) [Example 236, (±)-3-(2-fluoro-phenyl)-N-[1-(1-methyl-1,2,3,4-tetrahydro-quinolin-7-yl)ethyl]acrylamide] showed a melting point of 60 to 63 °C.

Compound CC(NC(=O)/C=C/c1ccc(F)cc1)c1ccc2c(c1)N(C)CCC2 (racemic) [Example 240, (±)-3-(4-fluoro-phenyl)-N-[1-(1-methyl-1,2,3,4-tetrahydro-quinolin-7-yl)ethyl]acrylamide] has a melting point of 183 to 185 °C.

With CC(NC(=O)/C=C/c1ccccc1Cl)c1ccc2c(c1)OCO2 (racemic) [Example 46, (±)-N-(1-Benzo[1,3]-diox-ol-5-yl-ethyl)-3-(2-chlor-o-phenyl)-acrylamide] the EC50 (mKCNQ2 channels) was 0.0006 µM and the Emax (mKCNQ2 channels) was 260%.

For CC(NC(=O)/C=C/c1ccccc1)c1ccc2c(c1)N(C)CCC2 (racemic) [Example 238, (±)-N-[1-(1-methyl-1,2,3,4-tetrahydro-quinolin-7-yl)-ethyl]-3-phenyl-acrylamide], the melting point was 166 °C (dec.).

With CC(NC(=O)/C=C/c1ccc(F)cc1)c1ccc2c(c1)NCCC2 (racemic) [Example 235, (±)-3-(4-fluoro-phenyl)-N-[1-(1,2,3,4-tetrahydro-quinolin-7-yl)ethyl]-acrylamide] the melting point was 125 to 127 °C (dec.).

With C[C@H](NC(=O)/C=C/c1ccc(Cl)cc1F)c1cccc(N2CCOCC2)c1 [Example 97, (S)-3-(4-Chloro-2-fluoro-phen-yl)-N-[1-(3-morpho-lin-4-yl-phenyl)-eth-yl]-acrylamide] the EC50 (mKCNQ2 channels) was 2.9 µM.

With CC(NC(=O)/C=C/c1ccc(F)c(F)c1)c1ccc2c(c1)CCCN2 (stereo not shown) [Example 250, 3-(3,4-difluoro-phenyl)-N-[1-(1,2,3,4-tetrahydro-quinolin-6-yl)-ethyl]acrylamide] the melting point was 156 °C (dec.).

In the case of CCN1CCOc2ccc(C(C)NC(=O)/C=C/c3ccccc3F)cc21 (single isomer, unassigned) [Example 214, 3-(2-fluoro-phenyl)-N-[1-(4-ethyl-3,4-dihydro-2H-benzo[1,4]oxazin-6-yl)ethyl]-acrylamide], the EC50 (mKCNQ2 channels) is reported as 0.0009 µM and the Emax (mKCNQ2 channels) is reported as 260%.

CC(NC(=O)/C=C/c1ccccc1)c1ccc2c(c1)NCCC2 (racemic) [Example 233, (±)-3-phenyl-N-[1-(1,2,3,4-tetrahydro-quinolin-7-yl)ethyl]-acrylamide] showed a melting point of 144 to 146 °C.

With CC(NC(=O)/C=C/c1cc(F)cc(F)c1)c1ccc2c(c1)CCCN2 (stereo not shown) [Example 248, 3-(3,5-difluoro-phenyl)-N-[1-(1,2,3,4-tetrahydro-quinolin-6-yl)-ethyl]acrylamide] the melting point was 180 °C (dec.), the EC50 (mKCNQ2 channels) was 5 µM and the Emax (mKCNQ2 channels) was 290%.
